Assay results published in patent US12263172B2, “Toll-like receptor agonists for use in the treatment of hepatitis b” (priority 2019, dated 2025).

Assay: Phase 1 single-ascending dose (Part 1): safety and tolerability in healthy adults
Assay type: in vivo, human
Description: This ongoing trial is a Phase 1 randomized, double-blind, placebo-controlled study in male and female healthy adult volunteers aged 18-55 years. All volunteers provided written, informed consent.
All volunteers were followed up for 4 weeks and safety and tolerability were continuously assessed throughout the study. All adverse events (AEs) were recorded from the time of consent to the completion visit and were graded using the DAIDS toxicity grading scale. Volunteers also underwent physical examinations, electrocardiograms, vital sign checks and clinical laboratory parameters (chemistry, haematology, urinalysis).

[1] = 1.8 mg and 1.25 mg fasted pooled

## CCCCOc1nc(N)c2[nH]cc(Cc3ccc(CN4CCCC4)cc3)c2n1 [Compound 4]
1.25 mg and 1.8 mg fasted
  time within which fever and flu-like symptoms resolved: 24 to 48 h
1.25 mg fasted and 1.8 mg
  time within which low lymphocyte count resolved: ≤ 72 h
[1]
  subjects with treatment-related headache overall: 5 subjects
  subjects with treatment-related pyrexia overall: 5 subjects
Part 1, all single doses
  subjects with treatment-related pyrexia grade 1: 3 subjects
  subjects with treatment-related pyrexia grade 2: 2 subjects
Part 1 and Part 2
  deaths, other SAEs, or AEs of at least grade 3: no deaths, other SAEs, or AEs of at least grade 3 occurred
All tested single doses
  serious AEs or dose-limiting toxicities: no serious AEs or dose-limiting toxicities
Single dose 0.2 mg fasted
  Any AE (treatment-emergent): 4 (67) n (%)
  Back pain Grade 1 (treatment-emergent AE): 0 n (%)
  Chills Grade 1 (treatment-emergent AE): 0 n (%)
  Contact dermatitis Grade 1 (treatment-emergent AE): 2 (33) n (%)
  Dizziness Grade 1 (treatment-emergent AE): 1 (17) n (%)
  ECG actual value: Heart rate (bpm) Low: 1 (16.7%) n (%)
  ECG actual value: QRS (ms) High: 0 n (%)
  ECG actual value: QTcB (ms) ]450; 480]: 0 n (%)
  ECG actual value: QTcF (ms) ]450; 480]: 0 n (%)
  ECG change from reference: QTcB (ms) [30; 60]: 0 n (%)
  ECG change from reference: QTcF (ms) [30; 60]: 0 n (%)
  Headache Grade 1 (treatment-emergent AE): 1 (17) n (%)
  Headache Grade 2 (treatment-emergent AE): 0 n (%)
  Hypertension Grade 1 (treatment-emergent AE): 0 n (%)
  Hypertension Grade 2 (treatment-emergent AE): 0 n (%)
  Myalgia Grade 1 (treatment-emergent AE): 0 n (%)
  Oropharyngeal pain Grade 1 (treatment-emergent AE): 0 n (%)
  Pyrexia Grade 1 (treatment-emergent AE): 0 n (%)
  Pyrexia Grade 2 (treatment-emergent AE): 0 n (%)
  URTI Grade 1 (treatment-emergent AE): 0 n (%)
  lab toxicity: Amylase (U/L), upwards, Grade 1: 0 n (%)
  lab toxicity: Amylase (U/L), upwards, Grade 2: 1 (16.7%) n (%)
  lab toxicity: Cholesterol (mmol/L), upwards, Grade 1: 0 n (%)
  lab toxicity: Cholesterol (mmol/L), upwards, Grade 2: 1 (16.7%) n (%)
  lab toxicity: Creatine kinase (U/L), upwards, Grade 1: 3 (50.0%) n (%)
  lab toxicity: Creatine kinase (U/L), upwards, Grade 2: 0 n (%)
  lab toxicity: Creatine kinase (U/L), upwards, Grade 4: 0 n (%)
  lab toxicity: Glucose (mmol/L), upwards, Grade 1: 1 (16.7%) n (%)
  lab toxicity: Glucose (mmol/L), upwards, Grade 2: 0 n (%)
  lab toxicity: LDL cholesterol (mmol/L, calculated), upwards, Grade 1: 1 (16.7%) n (%)
  lab toxicity: LDL cholesterol (mmol/L, calculated), upwards, Grade 2: 1 (16.7%) n (%)
  lab toxicity: LDL cholesterol (mmol/L, calculated), upwards, Grade 3: 0 n (%)
  lab toxicity: Lymphocytes (giga/L), downwards, Grade 2: 0 n (%)
  lab toxicity: Lymphocytes (giga/L), downwards, Grade 4: 0 n (%)
  lab toxicity: Neutrophils, segmented (giga/L), downwards, Grade 1: 0 n (%)
  lab toxicity: Neutrophils, segmented (giga/L), downwards, Grade 2: 0 n (%)
  lab toxicity: Platelets (giga/L), downwards, Grade 1: 0 n (%)
  lab toxicity: Sodium (mmol/L), upwards, Grade 1: 0 n (%)
  lab toxicity: Sodium (mmol/L), upwards, Grade 2: 0 n (%)
  lab toxicity: Triglycerides (mmol/L), upwards, Grade 1: 1 (16.7%) n (%)
  lab toxicity: Triglycerides (mmol/L), upwards, Grade 2: 2 (33.3%) n (%)
  lab toxicity: Triglycerides (mmol/L), upwards, Grade 3: 0 n (%)
  lab toxicity: Urate (μmol/L), upwards, Grade 1: 2 (33.3%) n (%)
  subjects with at least one AE for which any study drug or study was permanently stopped: 0 n (%)
  subjects with at least one AE for which any study drug or study was temporarily stopped: 0 n (%)
  subjects with at least one AE possibly related to any study drug: 0 n (%)
  subjects with at least one AE possibly, probably or very likely related to any study drug: 0 n (%)
  subjects with at least one AE probably related to any study drug: 0 n (%)
  subjects with at least one AE very likely related to any study drug: 0 n (%)
  subjects with at least one SAE: 0 n (%)
  subjects with at least one fatal AE: 0 n (%)
  subjects with at least one grade 1 AE: 4 (66.7%) n (%)
  subjects with at least one grade 2 AE: 0 n (%)
  subjects with at least one grade 3 or 4 AE: 0 n (%)
  subjects with low hematocrit levels (non-graded): 5 (83.3%) n (%)
  treatment-related AE: Any AE: 0 n (%)
  treatment-related AE: Chills: 0 n (%)
  treatment-related AE: Dizziness: 0 n (%)
  treatment-related AE: General disorders and administration site conditions: 0 n (%)
  treatment-related AE: Headache: 0 n (%)
  treatment-related AE: Hypertension: 0 n (%)
  treatment-related AE: Myalgia: 0 n (%)
  treatment-related AE: Nervous system disorders: 0 n (%)
  treatment-related AE: Oropharyngeal pain: 0 n (%)
  treatment-related AE: Pyrexia: 0 n (%)
  treatment-related AE: Respiratory, thoracic and mediastinal disorders: 0 n (%)
  treatment-related AE: Vascular disorder: 0 n (%)
  vital signs: Respiratory rate (brpm) Grade 1: 3 (50.0%) n (%)
  vital signs: Respiratory rate (brpm) Grade 2: 0 n (%)
  vital signs: SaO2 (%) 90% to <95%: 1 (16.7%) n (%)
  vital signs: SaO2 (%) 95% to <98%: 4 (66.7%) n (%)
  vital signs: Standing DBP (mmHg) Grade 1: 2 (33.3%) n (%)
  vital signs: Standing DBP (mmHg) Grade 2: 0 n (%)
  vital signs: Standing DBP (mmHg) Grade 3: 0 n (%)
  vital signs: Standing DBP (mmHg) Low: 0 n (%)
  vital signs: Standing SBP (mmHg) Grade 1: 3 (50.0%) n (%)
  vital signs: Standing SBP (mmHg) Low: 0 n (%)
  vital signs: Standing pulse (bpm) High: 3 (50.0%) n (%)
  vital signs: Standing pulse (bpm) Low: 0 n (%)
  vital signs: Supine DBP (mmHg) Grade 1: 0 n (%)
  vital signs: Supine DBP (mmHg) Low: 0 n (%)
  vital signs: Supine SBP (mmHg) Grade 1: 0 n (%)
  vital signs: Supine SBP (mmHg) Grade 2: 0 n (%)
  vital signs: Supine SBP (mmHg) Low: 1 (16.7%) n (%)
  vital signs: Supine pulse (bpm) Low: 2 (33.3%) n (%)
  ↑ AST Grade 3 (laboratory abnormality): 0 n (%)
  ↑ Amylase Grade 2 (laboratory abnormality): 1 (17) n (%)
  ↑ Cholesterol Grade 2 (laboratory abnormality): 1 (17) n (%)
  ↑ Creatine kinase Grade 2 (laboratory abnormality): 0 n (%)
  ↑ Creatine kinase Grade 4 (laboratory abnormality): 0 n (%)
  ↑ Glucose Grade 2 (laboratory abnormality): 0 n (%)
  ↑ LDL cholesterol Grade 2 (laboratory abnormality): 1 (17) n (%)
  ↑ LDL cholesterol Grade 3 (laboratory abnormality): 0 n (%)
  ↑ Lipase Grade 2 (laboratory abnormality): 0 n (%)
  ↑ Pancreatic amylase Grade 2 (laboratory abnormality): 0 n (%)
  ↑ Potassium Grade 2 (laboratory abnormality): 0 n (%)
  ↑ Sodium Grade 2 (laboratory abnormality): 0 n (%)
  ↑ Triglycerides Grade 2 (laboratory abnormality): 2 (33) n (%)
  ↑ Triglycerides Grade 3 (laboratory abnormality): 0 n (%)
  ↓ Bicarbonate Grade 2 (laboratory abnormality): 1 (17) n (%)
  ↓ GFR Grade 2 (laboratory abnormality): 0 n (%)
  ↓ Lymphocytes Grade 2 (laboratory abnormality): 0 n (%)
  ↓ Lymphocytes Grade 4 (laboratory abnormality): 0 n (%)
  ↓ Neutrophils Grade 2 (laboratory abnormality): 0 n (%)
  ↓ Phosphate Grade 2 (laboratory abnormality): 0 n (%)
Single dose 0.6 mg fasted
  Any AE (treatment-emergent): 3 (50) n (%)
  Back pain Grade 1 (treatment-emergent AE): 0 n (%)
  Chills Grade 1 (treatment-emergent AE): 0 n (%)
  Contact dermatitis Grade 1 (treatment-emergent AE): 0 n (%)
  Dizziness Grade 1 (treatment-emergent AE): 0 n (%)
  ECG actual value: Heart rate (bpm) Low: 0 n (%)
  ECG actual value: QRS (ms) High: 0 n (%)
  ECG actual value: QTcB (ms) ]450; 480]: 0 n (%)
  ECG actual value: QTcF (ms) ]450; 480]: 0 n (%)
  ECG change from reference: QTcB (ms) [30; 60]: 3 (50.0%) n (%)
  ECG change from reference: QTcF (ms) [30; 60]: 0 n (%)
  Headache Grade 1 (treatment-emergent AE): 0 n (%)
  Headache Grade 2 (treatment-emergent AE): 0 n (%)
  Hypertension Grade 1 (treatment-emergent AE): 0 n (%)
  Hypertension Grade 2 (treatment-emergent AE): 0 n (%)
  Myalgia Grade 1 (treatment-emergent AE): 0 n (%)
  Oropharyngeal pain Grade 1 (treatment-emergent AE): 1 (17) n (%)
  Pyrexia Grade 1 (treatment-emergent AE): 0 n (%)
  Pyrexia Grade 2 (treatment-emergent AE): 0 n (%)
  URTI Grade 1 (treatment-emergent AE): 0 n (%)
  lab toxicity: Amylase (U/L), upwards, Grade 1: 0 n (%)
  lab toxicity: Amylase (U/L), upwards, Grade 2: 0 n (%)
  lab toxicity: Cholesterol (mmol/L), upwards, Grade 1: 2 (33.3%) n (%)
